Experimental data published in patent publication US8507506B2, “Theophylline derivative inhibits osteoporosis” (Kaohsiung Medical University, priority 2011, dated 2013).
Marks after values point to notes of the source that are not given here.

Key:
[1] = tested on: c-Fos mRNA in RAW264.7 cells; assay: RT-PCR, RANKL-induced mRNA expression of c-Fos; assay type: cell-based; details: for RANKL-induced mRNA expression level of c-Fos: RAW264.7 cells, 24 hours, CTL 100%, mean ± SEM
Description: (§1) The culture medium was discarded. […] [table] f) Running • A.

[2] = tested on: MIA-induced knee arthritis in Wistar male rats; assay: Monosodium iodoacetate (MIA) induced knee arthritis rat model; assay type: in vivo
RAW264.7 cells = assay: MTT assay, proliferation induced by RANKL; assay type: cell-based; details: RAW264.7, 5 μM, 7.5 μM, 10 μM, FIG. 1
Procedure: Cells were plated onto 96-well plates at a density of 10^3 cells per well. After 24 hours incubation, the different concentrations of the different drugs were administrated into the plates. […] Subsequently, the medium was removed, and 100 μl/well isopropanol was added to solved formazan. The plates were shaken for 15 minutes and stood for 15 minutes, and then the absorbance was measured at wavelength of 540 nm and 630 nm. The ratio of the absorbance of treated cells relative to that of the control cells was calculated and expressed as a percentage of cell survival.

[3] = tested on: ERK phosphorylation in RAW264.7 cells; assay: Western blot, phosphorylation of ERK induced by RANKL; assay type: cell-based; details: 7.5 μM and 10 μM, RANKL 15 minutes, FIG. 9
Procedure: MAP kinases including ERK, JNK and p38 are stimulated by RANKL to be phosphorylized and further influence the down-stream key transcription factors which induce the differentiation of osteoclast-like cells such as c-Fos, NFATc1, etc. Before estimating the drug effect, 10 ng/ml RANKL are used to induce the phosphorylation of ERK, JNK and p38 at different time points. […] It is shown that KMUP-1 can reduce the activation of MAP kinases induced by RANKL. […] The proteins were collected by scraping and were centrifuged (13,000 rpm, 4° C., 30 minutes). The supernatant was stored in an eppendorf in −80° C. • c) Concentrations of the proteins were examined by Bio-Red DC Protein Assay. After knowing the concentrations, the proteins were diluted to specific concentrations by adding ddH2O. One forth volume of the diluted proteins of sample buffer was added into the diluted proteins and was put in boiled water for 5 min and then was chilled on ice for 5 minutes. After short time centrifugation, the diluted proteins could be injected into wells of a gel. The gel was run at 100 V for 10 minutes until the proteins were driven to the intersection between a loading gel and a running gel. Then, the voltage was swopped to 200 V for 40 minutes. • d) A PVDF membrane was immersed in Methanol for 2 minutes. After two washes in ddH2O, the membrane was immersed in transfer buffer for 15 minutes. […]

[4] = tested on: NFATc1 mRNA in RAW264.7 cells; assay: RT-PCR, RANKL-induced mRNA expression of NFATc1; assay type: cell-based; details: for RANKL-induced mRNA expression level of NFATc1: RAW264.7 cells, 24 hours, CTL 100%, mean ± SEM
Description: as §1

[5] = tested on: TNF-α secretion by RAW264.7 cells; assay: ELISA, RANKL-induced secretion of TNF-α; assay type: cell-based; details: RAW264.7, ELISA, FIG. 6
Procedure: Under RANKL stimulation, mononuclear RAW264.7 cells can secrete pro-inflammatory cytokines such as TNF-α, IL-1, IL-6, etc. ELISA is used to measure that KMUP-1 influences RANKL to induce the secretion of pro-inflammatory cytokines. […] 10^5 cells were plated per well in 24-well plates. […] After 24 hours reaction, the reaction fluid was centrifuged (13,000 rpm, 4° C., 20 minutes), and then the supernatant was tasted by ELISA kit (R&D system and eBioscience™) to detect the amount of TNF-α, IL-1β, IL-6, and IL-10. The experimental process is followed with the instructions of the kit.

[6] = tested on: NFATc1 protein in RAW264.7 cells; assay: Western blot, expression of NFATc1 induced by RANKL; assay type: cell-based; details: 5 μM, 7.5 μM and 10 μM, RANKL 24 hours, FIG. 13
Procedure: The proteins were collected by scraping and were centrifuged (13,000 rpm, 4° C., 30 minutes). The supernatant was stored in an eppendorf in −80° C. • c) Concentrations of the proteins were examined by Bio-Red DC Protein Assay. After knowing the concentrations, the proteins were diluted to specific concentrations by adding ddH2O. One forth volume of the diluted proteins of sample buffer was added into the diluted proteins and was put in boiled water for 5 min and then was chilled on ice for 5 minutes. After short time centrifugation, the diluted proteins could be injected into wells of a gel. The gel was run at 100 V for 10 minutes until the proteins were driven to the intersection between a loading gel and a running gel. Then, the voltage was swopped to 200 V for 40 minutes. • d) A PVDF membrane was immersed in Methanol for 2 minutes. After two washes in ddH2O, the membrane was immersed in transfer buffer for 15 minutes. A SDS-PAGE was put on the membrane, and wet paper was flanked them. The proteins were transferred to the PVDF membrane using a semi-dry transfer at 20 V for 30 minutes. • e) The band of the PVDF membrane was trimmed and was added by suitable amount of blocking buffer (5% skim milk in washing buffer) and then was shaken for 1 hour in room temperature to block non specific bindings. Then, the band was covered by a diluted 1° antibody overnight in 4° C. […]

[7] = 10 ng/ml RANKL, summary of Table 1

## Cn1c(=O)c2c(ncn2CCN2CCN(c3ccccc3Cl)CC2)n(C)c1=O [KMUP-1, 7-[2-[4-(2-Chlorophenyl)piperazin-1-yl]ethyl] theophylline]
[1]; [7]
  effect on mRNA expression of c-Fos induced by RANKL (in words): inhibits the mRNA expression
[1]; RANKL 10 ng/ml + KMUP-1 1 μM
  RANKL-induced mRNA expression level of c-Fos: 105.4 ± 8.1%
[1]; RANKL 10 ng/ml + KMUP-1 2.5 μM
  RANKL-induced mRNA expression level of c-Fos: 100.3 ± 4.7%
[1]; RANKL 10 ng/ml + KMUP-1 5 μM
  RANKL-induced mRNA expression level of c-Fos: 84.5 ± 5.2% ^b
[1]; RANKL 10 ng/ml + KMUP-1 7.5 μM
  RANKL-induced mRNA expression level of c-Fos: 67.1 ± 4.5% ^b
[1]; RANKL 10 ng/ml + KMUP-1 10 μM
  RANKL-induced mRNA expression level of c-Fos: 73.1 ± 6.3% ^b
[2]; oral 1 mg/kg
  holes and defects of cartilage tissues (H&E slices): the holes and defects from the damages of the MIA still exist
  inflammatory cell infiltrations (H&E slices): there are still many inflammatory cell infiltrations
[2]; oral 2.5 mg/kg
  holes and defects of cartilage tissues (H&E slices): become much better
  inflammatory cell infiltrations (H&E slices): the inflammatory cell infiltrations become less
[2]; oral 2.5 mg/kg and 5 mg/kg, one week before and one week after MIA
  damages of articular cartilage caused by MIA (gross appearance): can reduce the damages caused by the MIA
[2]; oral 5 mg/kg
  holes and defects of cartilage tissues (H&E slices): close to the recovery condition of the sham group
  inflammatory cell infiltrations (H&E slices): there are still some inflammatory cell infiltrations
[2]; oral 1, 2.5, 5 mg/kg
  mast cell infiltrations (toluidine blue slices): the mast cell infiltrations present a trend of reducing according to the higher dose
RAW264.7 cells
  cell proliferation induced by RANKL (MTT assay): can inhibit the cell proliferation induced by RANKL
[3]
  phosphorylation of ERK induced by RANKL: can efficiently inhibit the phosphorylation of ERK, JNK and p38 induced by RANKL
[4]; [7]
  effect on mRNA expression of NFATc1 induced by RANKL (in words): inhibits the mRNA expression
[4]; RANKL 10 ng/ml + KMUP-1 1 μM
  RANKL-induced mRNA expression level of NFATc1: 256.9 ± 7.5%
[4]; RANKL 10 ng/ml + KMUP-1 2.5 μM
  RANKL-induced mRNA expression level of NFATc1: 184.7 ± 4.2% ^b
[4]; RANKL 10 ng/ml + KMUP-1 5 μM
  RANKL-induced mRNA expression level of NFATc1: 161.8 ± 2.9% ^b
[4]; RANKL 10 ng/ml + KMUP-1 7.5 μM
  RANKL-induced mRNA expression level of NFATc1: 132.9 ± 2.4% ^b
[4]; RANKL 10 ng/ml + KMUP-1 10 μM
  RANKL-induced mRNA expression level of NFATc1: 121.5 ± 4.5% ^b
[5]
  RANKL-induced secretion of TNF-α: presents a dose dependent inhibition phenomenon
[6]
  expression of NFATc1 induced by RANKL: can efficiently inhibit the expression of NFATc1 induced by RANKL
